This note sets out measurements from patent US6525091B2, “Substituted diarylureas as stimulators for Fas-mediated apoptosis” (Telik, Inc., priority 2001, dated 2003).

One assay concerns synoviocytes. As to the kind of experiment: Stimulation of Fas-mediated apoptosis with h-HFE7A anti-human Fas antibody, XTT cell viability, stimulation index. Type of assay: cell-based. The note with it: 10 μM compound with h-HFE7A 1000 ng/mL, synoviocytes from rheumatoid arthritis patients, 16 hours. An excerpt:
Anti-human Fas antibody h-HFE7A, humanized antibody was obtained from Sankyo Co., Ltd. This antibody induces apoptosis when cross-linked with secondary antibody in vitro.
Samples of human synovium were obtained from rheumatoid arthritis patients at the time of total knee replacement surgery or synoviectomy. Synovial tissue was minced into small pieces and was digested with collagenase and cultured in Ham's F12 medium supplemented with 10% fetal bovine serum (F10F) in a humidified 5% CO2 atmosphere at 37° C. Adherent cells were considered as synoviocytes and were cultivated in F10 F.
Cell viability was determined with the XTT method described in Cancer Res. 48:4827 (1988). Ninety-six well flat plates were precoated with anti-human IgG. h-HFE7A (1000 ng/mL) and/or 10 μM of a compound of this invention were added and incubated for 2 hours. Synoviocytes were seeded (10,000/well) and incubated for 16 hours. Background wells received culture medium only. XTT (2,3-Bis[2-methoxy-4-nitro-sulfophenyl]-2H-tetrazolium-5-carboxanilide), final concentration 200 μg/mL, and phenazine methosulfate, final concentration 5 μM, were added to each well, and further incubated for 4 hours. The absorbance at 450 nm was measured and cell viability was determined as follows: [formula]
Enhancement of Fas-mediated apoptosis by compounds of this invention was determined by the stimulation index (SI): [formula] […]

The subject of the next assay is hepatocytes. As to the kind of experiment: Fas-dependent apoptosis, FACS analysis of DNA fragmentation (propidium iodide) and annexin V staining. The format is cell-based. Conditions: at 10 μM. On the procedure: Assays for Fas-dependent apoptosis are known in the art. See, for example, Ruiz-Ruiz et al, Cell Death Diff. 271 (1999); and Muller et al., J. Exp. Therap. 188:2033 (1998).
Apoptosis is identified by detection of the DNA fragmentation pattern characteristic of apoptotic cell death. In this Example, apoptosis is detected and measured by FACS® analysis carried out in a FACScan® flow cytometer (Becton Dickinson) using CellQuest software. Quantification of DNA fragmentation is performed by FACS® analysis of propidium iodide-stained nuclei as described in Nicolletti et al., J. Immunol. Methods 139:271-279 (1991). Hepatocytes floating in the culture medium are collected by centrifugation at 200×g. Adherent hepatocytes are harvested-by incubation with 1% trypsin for 1 min. The cells are washed in phosphate-buffered saline (PBS), suspended in hypotonic lysis buffer (0.1% sodium citrate, 0.1% Triton X, and […] propidium iodide) (Sigma) and incubated at 4° C. for 6 hours. Cells are then analyzed for DNA content by flow cytometry.
Early apoptotic changes are identified using annexin V-Fluos (Boehringer Mannheim) which binds to phosphatidylserine molecules (PS) exposed on apoptotic, but not normal, cell membranes (PS is normally restricted to the inner leaflet of the cell membrane bilayer). […] Cells are incubated for 10-15 min and analyzed on a flow cytometer using CellQuest software. […]

Take `O=C(Nc1ccc(Br)c([N+](=O)[O-])c1)Nc1ccc(Br)c([N+](=O)[O-])c1` [Compound 3]: the “Enhancement of Fas-mediated apoptosis, stimulation index (SI)” value in the assay with synoviocytes is given as “positive (An SI over 2.0 was considered positive)”. For the same compound, the “stimulation of Fas-dependent apoptosis” value in the assay with hepatocytes is reported as “stimulation of Fas-dependent apoptosis”.
